Assay results taken from US20220062317A1, “NA+/K+ ATPASE INHIBITORS FOR USE IN THE PREVENTION OR TREATMENT OF METASTASIS” (UNIVERSITÄT BASEL, priority 2018, published 2022).
“Also recorded” adds a separate entry of the source. Where a name gives a salt, the structure may show the parent alone.

What was measured:
BR16 CTC-derived cells = test: FDA-approved compound screen for CTC cluster dissociation (high content imaging); format: cell-based, human; conditions: even at lowest concentration tested (0.1 μM), 2 days, hypoxia
Experimental: In order to identify actionable vulnerabilities of CTC clusters, and to test whether the epigenetic and transcriptional features of clustered CTCs are reversible upon cluster dissociation into single cells the following steps were undertaken. First, the expression of all known cell-cell junction (CCJ) components in patient samples obtained from normal breast (TGCA REF), breast cancer (TOGA REF), single CTCs and CTC clusters were assessed (Aceto et al. Cell 2014). While breast cancer cells tend to only partially reduce their CCJ repertoire compared to normal breast cells, CTCs express only a small fraction of CCJ components, likely as a consequence to their increased motility. Yet, CTC clusters retain a higher number of CCJs as compared to single CTCs. […] To this end, 2′486 FDA-approved compounds were evaluated for their ability to dissociate clusters of human breast CTC-derived cells. Cluster dissociation was assessed using a high content screening microscope and comparing cells treated with each individual compound to steady state clustered BR16 cells and 40 μm-filtered BR16 single cell suspension as negative and positive controls, respectively (FIG. 4a). […] For the majority of the 2′486 FDA-approved compounds, when using a 5 μM concentration for 2 days in hypoxic conditions, no detectable reduction in cell viability (>70% viability) nor mean cluster size (>450 μm2) in BR16 CTC-derived cells was observed. […] These compounds include inhibitors of Na^+/K^+ ATPases (n=6), HDACs (n=2), nucleotide biosynthesis (n=5), kinases (n=4), GPCRs (n=2), cholesterol biosynthesis (n=1), nuclear export (n=1), tubulin (n=9), as well as DNA binding compounds (n=8) and antibiotics (n=1).
A library containing 2,486 FDA-approved compounds was purchased from the Nexus Platform ETH Zurich. Each compound was resuspended using CTC medium at a 15 μM concentration and 20 μl were aliquoted in duplicate in a total of 64 Flat Bottom Clear Ultra Low attachment 96-well plates (Corning, Cat #3474).
To reduce cluster size in CTC derived cell lines, a 40 μm cell strainer was used (Corning, Cat #431750). […] Plates were incubated in hypoxia (5% oxygen) for 2 days and then 20 μl were transferred into a 96 well Black/clear Tissue culture treated plate (BD Falcon, Cat #353219) containing 40 μl of D-PBS (Invitrogen, Cat #14190169) and stained for 1 hr at 37° C. with a final concentration of 4 μM Hoechst 34580 (Invitrogen, Cat #H21486), 2 μM TMRM (Invitrogen, Cat #T668) and 4 μM TOTO-3 (Invitrogen, Cat #T3604). For each plate, two positive controls (non-treated cells) and two negative controls (non-treated and […] cells) were included. Z-factors were calculated per individual plate using the following formula: Z′=1−3(σs+σc)/|μs−μc|^3 (σ: standard deviation, μ: mean, s: positive control and c: negative control) (Martin et al., PLoS One 9, e88338, 2014) and ranged between 0.62-0.937. Plates were scanned using Operetta High Content Imaging System (Perkin Elmer) and cluster analysis was performed using Harmony High Content Imaging and Analysis Software (Perkin Elmer).

[1] = tested on: BRx50 human CTC-derived cells; test: as above; format: cell-based; conditions: even at lowest concentration tested (0.1 μM)
LM2 xenografts = test: LM2 xenograft, spontaneous CTC clusters and metastasis; format: in vivo, NSG mice; conditions: LM2 xenograft, digoxin 2 mg/kg vs vehicle
BR16 xenografts = test: BR16 xenograft (mammary fat pad), spontaneous CTC clusters and metastasis; format: in vivo, NSG mice; conditions: digoxin 2 mg/kg vs vehicle
Experimental: Blood specimens for CTC analysis were obtained from University Hospital Basel after informed patient consent according to protocol EKNZ BASEC 2016-00067 and EK 321/10, which received ethical approval from the Swiss authorities (EKNZ, Ethics Committee northwest/central Switzerland). An average of 7.5 ml of blood per patient was drawn in EDTA vacutainers. Within 1 hr from blood draw, the blood was processed through Parsortix GEN3D6.5 Cell Separation Cassette (Angle Europe). For mouse studies, blood was retrieved via cardiac puncture and 1 ml of blood was similarly processed through a Parsortix device. Captured CTCs were further stained on Parsortix cassette with EpCAM-AF488 conjugated (CellSignaling, Cat #CST5198), HER2-AF488 (#324410, BioLegend), EGFR-FITC conjugated (GeneTex, Cat #GTX11400) and CD45-BV605 conjugated (Biolegend, Cat #304042 (anti-human); Cat #103140 (anti-mouse)) antibodies. For all other models (xenografts), carrying cancer cells stably expressing a GFP-Luciferase reporter, only anti-CD45 staining was performed, while CTCs were identified based on GFP expression. The number of captured CTCs, including single CTCs, CTC clusters and CTC-WBC clusters, was determined while cells were still in the cassette. CTCs were then released from the cassette in DPBS (#14190169, Gibco) onto ultra-low attachment plates (#3471-COR, Corning). Representative pictures were taken at 40× magnification with Leica DM14000 fluorescent microscope using Leica LAS and analyzed with ImageJ.
For tail vein experiments, NOD SCID Gamma (NSG) mice (Jackson Labs) were injected with 1×10^6 BR16-mCherry cells resuspended in 100 μl D-PBS and monitored with IVIS Lumina II (Perkin Elmer). For CTC xenograft mouse model isolation, 1×10^6 LM2-GFP, 1×10^6 BRx50-GFP or 1×10^6 BR16-GFP cells were resuspended in 100 μl of 50% Cultrex PathClear Reduced Growth Factor Basement Membrane Extract (R&D Biosystems, Cat #3533-010-02) in D-PBS and injected orthotopically in NSG mice. Blood draw was performed 4-5 weeks after tumor onset for LM2 cells, 5-6 months after tumor onset for BR16 and 6-7 months after tumor onset for BRx50 cells.

SMILES: COc1cc2c(c(OC)c1OC)-c1ccc(OC)c(=O)cc1[C@@H](NC(C)=O)CC2 [colchicine]
- mean cluster size (BR16 CTC-derived cells): significant decrease in mean cluster size
- mean cluster size [1]: significant decrease in mean cluster size

SMILES: C[C@H]1O[C@@H](O[C@H]2[C@@H](O)C[C@H](O[C@H]3[C@@H](O)C[C@H](O[C@H]4CC[C@@]5(C)[C@H](CC[C@@H]6[C@@H]5C[C@@H](O)[C@]5(C)[C@@H](C7=CC(=O)OC7)CC[C@]65O)C4)O[C@@H]3C)O[C@@H]2C)C[C@H](O)[C@@H]1O [digoxin, Digoxin]
- formation of CTC clusters (CTC fold change) (LM2 xenografts): reduced the formation
- formation of CTC-neutrophil clusters (CTC fold change) (LM2 xenografts): reduced the formation
- overall survival (LM2 xenografts): prolonged overall survival
- tumor size / tumor growth rate over time (LM2 xenografts): No significant differences are observed; also recorded: no significant difference
- overall survival (LM2 xenografts; listed as Digoxin): prolongs overall survival
- metastasis (metastatic index) (BR16 xenografts): suppresses metastasis
- number of CTC clusters (BR16 xenografts): clear decrease
- number of CTC-neutrophil clusters (BR16 xenografts): clear decrease
- tumor size / tumor growth rate over time (BR16 xenografts): No significant differences are observed; also recorded: no significant difference

SMILES: COc1cc([C@@H]2c3cc4c(cc3[C@H](O)[C@H]3COC(=O)[C@H]23)OCO4)cc(OC)c1OC [podofilox]
- mean cluster size (BR16 CTC-derived cells): significant decrease in mean cluster size
- mean cluster size [1]: significant decrease in mean cluster size

SMILES: COc1cc(OC)c(/C=C/S(=O)(=O)Cc2ccc(OC)c(NCC(=O)O)c2)c(OC)c1 [rigosertib]
- mean cluster size (BR16 CTC-derived cells): significant decrease in mean cluster size
- mean cluster size [1]: significant decrease in mean cluster size

SMILES: CC[C@]1(O)C[C@H]2CN(CCc3c([nH]c4ccccc34)[C@@](C(=O)OC)(c3cc4c(cc3OC)N(C=O)[C@H]3[C@@](O)(C(=O)OC)[C@H](OC(C)=O)[C@]5(CC)C=CCN6CC[C@]43[C@@H]65)C2)C1 [vincristine sulfate]
- mean cluster size (BR16 CTC-derived cells): significant decrease in mean cluster size
- mean cluster size [1]: significant decrease in mean cluster size
